From EP3434287B1, “SHORT AND ULTRA-SHORT ANTIMICROBIAL LIPOPEPTIDES AND USE THEREOF” (Arta Peptidion S.r.l.s., priority 2017, dated 2019)
Values after ≈ are worked out from the molar mass of the structure shown. Values joined by “and” are separate entries in the source; they are usually repeats but may differ in a detail not shown here. Equal values may be shown once. Read-outs that look alike come from different tables or passages of the source. Residues, ends and D or L forms follow the SMILES beside them. *: point of attachment. Myristoyl = CCCCCCCCCCCCCC(=O)*; Lauroyl = CCCCCCCCCCCC(=O)*; Octanoyl = CCCCCCCC(=O)*; Hexanoyl = CCCCCC(=O)*

Columns and labels:
S.aureus = format: cell-based, S. aureus (ATCC 25923)
Procedure: (§1) The antimicrobial activity of a lipopeptide can be determined using a method known in the art, for example, the broth-dilution method. Essentially, this method involves the growth of a microorganism in a liquid medium until it reaches the logarithmic phase. The test lipopeptide is serially diluted with growth medium for the test bacterium in the wells of a multiwell plate. An optimal concentration of the microorganism is added to the wells containing the serially diluted lipopeptide. The plate is incubated in a thermostat at a temperature of 37° C. for a time sufficient for the microorganism to grow. The growth of the microorganism, evaluated in comparison with a negative control (microorganism grown in the absence of the lipopeptide), is determined by detecting the absorbance of the solution containing the bacterium, for example, at 605 nm.
(§2) The minimum inhibitory concentration values (MICs) of the lipopeptides and of conventional antibiotics were determined by the broth microdilution susceptibility test following the guidelines of the NCCLS with mid-log phase cultures. Serial two-fold dilutions of each peptide were prepared (final volume of 50 ul) in 96-well polypropylene microtiter plates (UNIFO, Treviso, Italy) with MH broth for bacteria and RPMI-1640 for fungi. Each dilution series included con-trol wells without peptide. A total of 50 ul of the adjusted inoculum (approximately 5 × 10^5 cells/ml for bacteria or 5 × 10^4 cells/ml for fungi, in the appropriate medium) was added to each well. To evaluate the MIC, microtiter plates with bacteria were incubated at 37° C overnight, while those with fungi were incubated at 30° C for 48 h. The fatty acid tested were: C6 (hexanoic),C8 (octanoic),C10 (decanoic),C12 (lauric),C14 (mystiric).
as §2, with “h.” for “h. The fatty acid tested were: C6 (hexanoic),C8 (octanoic),C10 (decanoic),C12 (lauric),C14 (mystiric).”

P.aeruginosa = format: cell-based, Pseudomonas aeruginosa ATCC 27853
Procedure: as §1, §2
as §2, with “control” for “con-trol”, “h.” for “h. The fatty acid tested were: C6 (hexanoic),C8 (octanoic),C10 (decanoic),C12 (lauric),C14 (mystiric).”

E.coli = format: cell-based, Escherichia coli ATCC 25922
Procedure: as §1, §2
as §2, with “control” for “con-trol”, “h.” for “h. The fatty acid tested were: C6 (hexanoic),C8 (octanoic),C10 (decanoic),C12 (lauric),C14 (mystiric).”

Cytotoxicity, MTT assay = format: cell-based; settings: human, A549 cells (lung cancer epithelial cell line), treated for 24-72 h, read-out: LC50 (the source's name)
Procedure: In the present invention, cytotoxicity of the lipopeptides against a epithelial cell line was also determined, for example, A549 cells (lung cancer). Cells were cultured in the presence and in the absence of peptides and the damage to the membrane was evaluated by the vital stain MTT.
The colorimetric 3-(4,5-dimethylthiazol-2-yl)-2,5-diphenyl tetrazolium bromide (MTT) assay was performed to assess the metabolic activity of cells plated into 96-well culture plates (10 5 cell/well) and treated with 0.5-25 µM of in complete medium for 24-72 h. At the end of treatments, fullerenes containing medium were removed and replaced with fresh medium; for the cytotoxic assay, 20 µL stock MTT (5 mg/mL) was added to each well, and cells were then incubated for 4 hr at 37 °C. The converted MTT dye was solubilised with acidic isopropanol (0.04 N HCl in absolute isopropanol). Absorbance was measured at 540 nm and 630 nm using a microplate reader (Automated Microplate Reader EL311, BIO-TEK Instruments, Vermont, USA). All measurements were done in triplicate and each experiment was repeated at least three times.

C. albicans ATCC 90029 = format: cell-based; settings: RPMI-1640, 30° C for 48 h
Procedure: as §2, with “Italy)” for “Italy) with MH broth for bacteria and”, “h.” for “h. The fatty acid tested were: C6 (hexanoic),C8 (octanoic),C10 (decanoic),C12 (lauric),C14 (mystiric).”
(§3) This example was performed on two different strain of C.albicans. Both strain are human clinical isolate recovered from a patient with generalized candidiasis.

C.albicans SC5314 = test: MIC against filamentous yeast strain, broth microdilution susceptibility test (NCCLS); format: cell-based; settings: RPMI-1640, 30° C for 48 h
Procedure: as §2, with “Italy)” for “Italy) with MH broth for bacteria and”, “h.” for “h. The fatty acid tested were: C6 (hexanoic),C8 (octanoic),C10 (decanoic),C12 (lauric),C14 (mystiric).”
as §3

[1] = Example 1, effect of fatty acid length on RFWR, MH broth, 37° C overnight

In the case of `CCCCCCCCCCCC(=O)N[C@@H](CCCNC(=N)N)C(=O)N[C@@H](Cc1ccccc1)C(=O)N[C@@H](Cc1c[nH]c2ccccc12)C(=O)N[C@@H](CCCNC(=N)N)C(N)=O` [Lipopeptide 4] (Lauroyl-RFWR-NH2), the “Bacteria (MIC, ug/ml) S.aureus” value (S.aureus) is reported as 3.125 µg/mL, the “Bacteria (MIC, ug/ml) P.aeruginosa” value (P.aeruginosa) is reported as 12.5 µg/mL and the “Bacteria (MIC, ug/ml) E.coli” value (E.coli) is reported as 12.5 µg/mL.

For `CCCCCCCCCCCC(=O)N[C@@H](CCCNC(=N)N)C(=O)N[C@@H](Cc1ccccc1)C(=O)N[C@@H](Cc1c[nH]c2ccccc12)C(=O)N[C@@H](CCCNC(=N)N)C(N)=O` [Lipopeptide 3, Lau-RFWR-NH2] (Lauroyl-RFWR-NH2), the “MIC against S.aureus” value (S.aureus) was 3.66 µM (≈ 3.09 µg/mL), the “Bacteria (MIC, ug/ml) S.aureus” value (S.aureus; [1]) was 12.5 µg/mL and the “MIC against P. aeruginosa” value (P.aeruginosa) was 14.7 µM. For the same compound, the “Bacteria (MIC, ug/ml) P.aeruginosa” value (P.aeruginosa; [1]) was 50 µg/mL, the “MIC against P. aeruginosa” value (P.aeruginosa; MH broth, 37° C overnight) was 12.5 µg/mL and the CC50 (Cytotoxicity, MTT assay) was 100 µg/mL and ~118 µM. For the same compound, the “MIC against E. coli” value (E.coli) was 7.39 µM and the “Bacteria (MIC, ug/ml) E.coli” value (E.coli; [1]) was 25 µg/mL.

With `CCCCCCCCCCCC(=O)N[C@@H](CCCNC(=N)N)C(=O)N[C@@H](CCCNC(=N)N)C(=O)N[C@@H](Cc1ccccc1)C(=O)N[C@@H](Cc1c[nH]c2ccccc12)C(=O)N[C@@H](CCCNC(=N)N)C(=O)N[C@@H](CCCNC(=N)N)C(N)=O` [Lipopeptide 16, Lau-RRFWRR-NH2] (Lauroyl-RRFWRR-NH2) the “MIC against C. albicans ATCC strain” value (C. albicans ATCC 90029) was 1.56 µg/mL (≈ 1.35 µM).

With `CCCCCCCCCCCC(=O)N[C@@H](CCCNC(=N)N)C(=O)N[C@@H](CCCNC(=N)N)C(=O)N[C@@H](Cc1ccccc1)C(=O)N[C@@H](Cc1c[nH]c2ccccc12)C(N)=O` [Lipopeptide 14] (Lauroyl-RRFW-NH2) the “MIC against P. aeruginosa” value (P.aeruginosa) was 14.7 µM, the “MIC against P. aeruginosa” value (P.aeruginosa; MH broth, 37° C overnight) was 12.5 µg/mL and the “MIC against E. coli” value (E.coli) was 14.7 µM. For the same compound, the “MIC against E. coli” value (E.coli; MH broth, 37° C overnight) was 12.5 µg/mL.

With `N=C(N)NCCC[C@H](NC(=O)[C@H](Cc1c[nH]c2ccccc12)NC(=O)[C@H](Cc1ccccc1)NC(=O)[C@@H](N)CCCNC(=N)N)C(N)=O` [Lipopeptide 0] (H-RFWR-NH2; N-terminus and C-terminus assumed) the “Bacteria (MIC, ug/ml) S.aureus” value (S.aureus) was >400 µg/mL, the “Bacteria (MIC, ug/ml) P.aeruginosa” value (P.aeruginosa) was >400 µg/mL and the “Bacteria (MIC, ug/ml) E.coli” value (E.coli) was >400 µg/mL.

In the case of `CCCCCCCC(=O)N[C@@H](CCCNC(=N)N)C(=O)N[C@@H](Cc1ccccc1)C(=O)N[C@@H](Cc1c[nH]c2ccccc12)C(=O)N[C@@H](CCCNC(=N)N)C(N)=O` [Lipopeptide 2] (Octanoyl-RFWR-NH2), the “Bacteria (MIC, ug/ml) S.aureus” value (S.aureus) is reported as 100 µg/mL, the “Bacteria (MIC, ug/ml) P.aeruginosa” value (P.aeruginosa) is reported as 100 µg/mL and the “Bacteria (MIC, ug/ml) E.coli” value (E.coli) is reported as 100 µg/mL.

For `CCCCCCCCCCCCCC(=O)N[C@@H](CCCNC(=N)N)C(=O)N[C@@H](Cc1ccccc1)C(=O)N[C@@H](Cc1c[nH]c2ccccc12)C(=O)N[C@@H](CCCNC(=N)N)C(N)=O` [Lipopeptide 5] (Myristoyl-RFWR-NH2), the “Bacteria (MIC, ug/ml) S.aureus” value (S.aureus) was 6.125 µg/mL, the “Bacteria (MIC, ug/ml) P.aeruginosa” value (P.aeruginosa) was 50 µg/mL and the “Bacteria (MIC, ug/ml) E.coli” value (E.coli) was 25 µg/mL.

With `CCCCCCCCCCCC(=O)N[C@@H](CCCNC(=N)N)C(=O)N[C@@H](CCSC)C(=O)N[C@@H](Cc1c[nH]c2ccccc12)C(=O)N[C@@H](CCCNC(=N)N)C(N)=O` [Lipopeptide 8, Lau-RMWR-NH2] (Lauroyl-RMWR-NH2) the “MIC against C.albicans SC5314 strain” value (C.albicans SC5314) was 12.5 µg/mL (≈ 15.1 µM).

In the case of `CCCCCC(=O)N[C@@H](CCCNC(=N)N)C(=O)N[C@@H](Cc1ccccc1)C(=O)N[C@@H](Cc1c[nH]c2ccccc12)C(=O)N[C@@H](CCCNC(=N)N)C(N)=O` [Lipopeptide 1] (Hexanoyl-RFWR-NH2), the “Bacteria (MIC, ug/ml) S.aureus” value (S.aureus; [1]) is reported as >400 µg/mL, the “Bacteria (MIC, ug/ml) P.aeruginosa” value (P.aeruginosa; [1]) is reported as >400 µg/mL and the “Bacteria (MIC, ug/ml) E.coli” value (E.coli; [1]) is reported as >400 µg/mL.

For `CCCCCCCCCCCC(=O)N[C@@H](CCCNC(=N)N)C(=O)N[C@H](C(=O)N[C@@H](Cc1c[nH]c2ccccc12)C(=O)N[C@@H](CCCNC(=N)N)C(N)=O)[C@@H](C)CC` [Lipopeptide 6, Lau-RIWR-NH2] (Lauroyl-RIWR-NH2), the “MIC against S.aureus” value (S.aureus) was 1.77 µM (≈ 1.44 µg/mL), the “MIC against C.albicans SC5314 strain” value (C.albicans SC5314) was 12.5 µg/mL (≈ 15.4 µM) and the “MIC against P. aeruginosa” value (P.aeruginosa) was 14.7 µM. For the same compound, the “MIC against P. aeruginosa” value (P.aeruginosa; MH broth, 37° C overnight) was 12.5 µg/mL, the CC50 (Cytotoxicity, MTT assay) was 100 µg/mL and ~118 µM and the “MIC against E. coli” value (E.coli) was 7.39 µM.

With `CCCCCCCCCCCC(=O)N[C@@H](CCCNC(=N)N)C(=O)N[C@@H](CCCNC(=N)N)C(=O)N[C@@H](Cc1ccccc1)C(=O)N[C@@H](Cc1c[nH]c2ccccc12)C(N)=O` [Lipopeptide 14, Lau-RRFW-NH2] (Lauroyl-RRFW-NH2) the “MIC against C.albicans SC5314 strain” value (C.albicans SC5314) was 12.5 µg/mL (≈ 14.8 µM).
